The values that follow are results of earlier work, collected in patent US8512751B2, “Pharmaceutical compositions for sleep disorders” (Collegium Pharmaceutical, Inc., priority 2004, dated 2013).

As a reminder, the half-life is the time in which the quantity being followed falls by half.

The test system of data set [1] is sleep apnea. The note with it: for effect in individuals with sleep apnea: patients, literature.
In data set [2] the test system is serotonin uptake. The note with it: animal models.
The conditions of data set [3]: in vivo.
For data set [4] the following is noted: man, single oral 40-mg dose.
For data set [5], the system named is nocturnal sleep. The note with it: healthy adults; 20, 40 and 60 mg.
Data set [6] deals with EOG and EMG activity.
The conditions of data set [7]: water and normal saline.
In data set [8] the test system is sleep apnea. The note with it: animal model of sleep apnea.

Counter-ions that a name gives are not always drawn.

For the compound `Cn1c(=O)c2[nH]cnc2n(C)c1=O` [theophylline], the “effect in individuals with sleep apnea” value in data set [1] is reported as “may benefit patients with central apnea but appears to be of no use in adult patients with obstructive apnea”. As to medroxyprogesterone, the “effect in individuals with sleep apnea” value in [1] is listed as “no consistent benefit in OSAS”. Take `NCC[C@@H](Oc1ccc(C(F)(F)F)cc1)c1ccccc1` [R-norfluoxetine]: in [2], the “inhibition of serotonin uptake, activity relative to fluoxetine” value is on record as “significantly less potent than the parent drug”. As to `CC1(C)Cc2cc(Cl)cc(C(=O)NC3CC4CCC(C3)[N+]4(C)C)c2O1` (stereo not drawn) [methylated zatosetron], in data set [3], the “ability to cross the blood-brain barrier” value is “lack the ability to cross the blood-brain barrier”. As to `CCN1CC(CCN2CCOCC2)C(c2ccccc2)(c2ccccc2)C1=O` (stereo not drawn) [doxapram], the “effect in individuals with sleep apnea” value in [1] is listed as “decrease the length of apneas but did not alter the average arterial oxygen saturation”. Take `CNCCCC1c2ccccc2C=Cc2ccccc21` [Protriptyline]: the “effect in individuals with sleep apnea” value in data set [1] was “variable results and frequent and significant side effects”. Regarding `C=CCN1CC[C@]23c4c5ccc(O)c4O[C@H]2C(=O)CC[C@@]3(O)[C@H]1C5` [naloxone], the “effect in individuals with sleep apnea” value in data set [1] is “only slightly helpful”. As for `CC(=O)Nc1nnc(S(N)(=O)=O)s1` [acetazolamide], the “effect in individuals with sleep apnea” value in data set [1] was “produced variable improvement in individuals with primary central apneas but caused an increase in obstructive apneas”.

In the case of `NCC[C@H](Oc1ccc(C(F)(F)F)cc1)c1ccccc1` [S-norfluoxetine], in [2], the “inhibition of serotonin uptake, activity relative to fluoxetine” value is listed as “essentially equivalent to R- or S-fluoxetine”. Turning to `CNCCC(Oc1ccc(C(F)(F)F)cc1)c1ccccc1` (stereo not drawn) [fluoxetine], in data set [4], the peak plasma concentrations is 15 to 55 ng/mL and the “time of peak plasma concentrations” value is 6 to 8 h. Further, in data set [5], the “effects on nocturnal sleep” value is “reduced the total sleep time and the duration of rapid eye movement (REM) sleep and increased awake activity and stage 1 (drowsy) sleep during the night”. For the same compound, the “number of eye movements, EOG and EMG activity on treatment” value in data set [6] (REM, stages 1, 2, and slow-wave sleep) is “significantly increases the number of eye movements”. In data set [6] (in vivo), the “patients with increased EOG and EMG activity on treatment in every sleep stage” value is “Thirty-four”. Besides, in data set [1] (initial evidence), the “individuals with OSAS with measurable benefits” value is reported as “approximately 50%”. In the case of `Cc1nccn1CC1CCc2c(c3ccccc3n2C)C1=O` (racemic) [Ondansetron HCl dihydrate, (±) 1,2,3,9-tetrahydro-9-methyl-3-[(2-methyl-1H-imidazol-1-yl)methyl]-4H-carbazol-4-one, monohydrochloride, dihydrate], in data set [7], the solubility entry is “soluble in water and normal saline”. With `Nc1ncnc2c1ncn2[C@@H]1O[C@H](CO)[C@@H](O)[C@H]1O` [adenosine], the reduction of apnea entry in [8] was “somewhat effective in reducing apnea”. As to `Cc1nccn1CC1CCc2c(c3ccccc3n2C)C1=O` (stereo not drawn) [Ondansetron], where the note is “antacids”, the “Bioavailability, effect of antacids” value is “unaffected”. Further, the Mean bioavailability result (healthy subjects, single 8-mg tablet) is “approximately 56%”. Moreover, the “radiolabeled dose recovered from the urine as the parent compound” value (humans) was “approximately 5%”. The “AUC from a 16-mg tablet greater than predicted from an 8-mg tablet dose” value (oral tablets) is on record as 24%. In addition, the half-life (plasma, humans) is 3 to 5 h. The “Bioavailability, effect of food” value (presence of food) is on record as “slightly enhanced”. Further, under “single dose”, the “extent and rate of absorption, gender difference” value is reported as “greater in women than men”.
